Reference: US20230279002A1, “Polymorphs of Crystalline Forms of 3,10-dimethoxy-5,8,13,13a-tetrahydro-6H-isoquinolino[3,2-a]isoquinolin-9-yl 3-fluorobenzenesulfonate and Salts Thereof” (CVI Pharmaceuticals Limited, priority 2020, published 2023)
“Also recorded” adds a separate entry of the source.

Key:
Type in all cases: physicochemical
[1] = Solid stability at 40° C./0% RH (closed) and 40° C./75% RH (open), HPLC; conditions: for 0 day % remaining / 7 day % remaining / 21 day % remaining: solid
In short: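 Solid compound (5 mg) stored in the dark at 40 °C/0% RH in closed vials and at 40 °C/75% RH open. Samples analysed by HPLC at day 0, 5 and 10, or at days 0, 7 and 21, depending on the study.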

[2] = TGA (Thermal Gravimetric Analysis) weight loss; conditions: room temperature to 120° C.
Procedure: TGA (Thermal Gravimetric Analysis): Samples of compounds (4˜6 mg) were weighed into the pan, and heated under nitrogen purge using a ramp rate of 20° C./min over the range of 30° C.˜350° C.

[3] = Solution stability in 0.1 N HCl, pH 4.5 buffer and pH 6.8 buffer at 25° C. and 37° C., HPLC
Procedure: Solution stability: A stock solution of compound (1.0 mg/mL) in MeOH was diluted with 0.1 N HCl, pH 4.5 buffer (acetate) and pH 6.8 buffer to reach constant ionic strength of 0.15 M and the same final concentration (50 μg/mL, 40% MeOH).
A stock solution of 1b and 3b (1.0 mg/mL) in MeOH was diluted with pH 6.8 buffer to reach constant ionic strength of 0.15M and the same final concentration (25 μg/mL, 40% […]).
The solutions were stored at 25° C. and 37° C.

[4] = Solubility in SGF, FaSSIF, FeSSIF, 0.1M HCl, pH 4.5 and pH 6.8 aqueous at 25° C. (HPLC); conditions: for Solubility conc.(mg/ml): solubility of salts transformed to freebase; for Final pH: solubility test
Procedure: Solubility: Excess drug substance was equilibrated with SGF (Simulated Gastric Fluid), FaSSIF (Simulated Small Intestinal Fluid under Fasted state), FeSSIF (Simulated Small Intestinal Fluid under Fed state), 0.1M HCl, pH 4.5 aqueous, and pH 6.8 aqueous at 25° C. After stirring for 20˜24 h, each sample was filtered, diluted appropriately and analyzed by HPLC. The experiment was terminated once a solubility target of 5 mg/mL was reached.

[5] = DVS (Dynamic Vapor Sorption) moisture sorption/desorption, hygroscopicity classification; conditions: 25 °C; for Change In Mass (%) - ref, Desorption / Change In Mass (%) - ref, Sorption / Change In Mass (%) - ref, Hysteresis: Cycle 1
Procedure: DVS (Dynamic Vapor Sorption): Around 10-20 mg of samples were used to test its moisture sorption/desorption profiles at 25° C. under 0%˜95%˜0% relative humidity (RH) cycle using dm/dt: 0.01%/min equilibrium and a measurement step of 5% RH.
Hygroscopicity Classification: Typical %-moisture gain as a function of increased RH was determined by DVS. Samples went through a dynamic test isothermally at 25° C. The test was divided into 2 processes, one was absorption process, the other was desorption process. RH ranged from 0% to 95% with 5% RH for each step, and when dm/dt<=0.01%, it was assumed the water sorption/desorption equilibrium is reached.

Substance: 3,10-dimethoxy-5,8,13,13a-tetrahydro-6H-isoquinolino[3,2-a]isoquinolin-9-yl 3-fluorobenzenesulfonate [Compound 1b]
- Solid-state stability (HPLC) ([1]; 40° C./0% RH (closed) and 40° C./75% RH (open), dark, up to 3 weeks): substantially stable
- 0 day % remaining ([1]; 40° C. (0% RH, closed)): 100.0%
- 7 day % remaining ([1]; 40° C. (0% RH, closed)): 99.3%
- 21 day % remaining ([1]; 40° C. (0% RH, closed)): 98.4%
- 0 day % remaining ([1]; 40° C./75% RH (open)): 100.0%
- 7 day % remaining ([1]; 40° C./75% RH (open)): 99.2%
- 21 day % remaining ([1]; 40° C./75% RH (open)): 102.0%
- TGA weight loss (in words) [2]: almost no weight loss
- Remaining % ([3]; 25° C., 0.1N HCL, 0 h, 50 μg/mL, 40% MeOH): 100.00%
- Remaining % ([3]; 25° C., 0.1N HCL, 3 h, 50 μg/mL, 40% MeOH): 100.53%
- Remaining % ([3]; 25° C., 0.1N HCL, 24 h, 50 μg/mL, 40% MeOH): 100.88%
- Solution stability ([3]; 25° C., 24 h, 0.1N HCl, pH 4.5 buffer): stable
- Solution stability ([3]; 25° C., 24 h, pH 6.8 buffer): clear degradations
- Remaining % ([3]; 25° C., pH 4.5, 0 h, 50 μg/mL, 40% MeOH): 100.00%
- Remaining % ([3]; 25° C., pH 4.5, 3 h, 50 μg/mL, 40% MeOH): 99.94%
- Remaining % ([3]; 25° C., pH 4.5, 24 h, 50 μg/mL, 40% MeOH): 98.79%
- Remaining % ([3]; 25° C., pH 6.8*, 0 h, final conc. 25 μg/mL with 40% DMSO): 100.00%
- Remaining % ([3]; 25° C., pH 6.8*, 3 h, final conc. 25 μg/mL with 40% DMSO): 99.18%
- Remaining % ([3]; 25° C., pH 6.8*, 24 h, final conc. 25 μg/mL with 40% DMSO): 91.23%
- Remaining % ([3]; 37° C., 0.1N HCL, 0 h, 50 μg/mL, 40% MeOH): 100.00%
- Remaining % ([3]; 37° C., 0.1N HCL, 3 h, 50 μg/mL, 40% MeOH): 101.92%
- Remaining % ([3]; 37° C., 0.1N HCL, 24 h, 50 μg/mL, 40% MeOH): 100.14%
- Solution stability ([3]; 37° C., 24 h, 0.1N HCl, pH 4.5 buffer): stable
- Solution stability ([3]; 37° C., 24 h, pH 6.8 buffer): decomposed
- Remaining % ([3]; 37° C., pH 4.5, 0 h, 50 μg/mL, 40% MeOH): 100.00%
- Remaining % ([3]; 37° C., pH 4.5, 3 h, 50 μg/mL, 40% MeOH): 99.51%
- Remaining % ([3]; 37° C., pH 4.5, 24 h, 50 μg/mL, 40% MeOH): 98.83%
- Remaining % ([3]; 37° C., pH 6.8*, 0 h, final conc. 25 μg/mL with 40% DMSO): 100.00%
- Remaining % ([3]; 37° C., pH 6.8*, 3 h, final conc. 25 μg/mL with 40% DMSO): 98.97%
- Remaining % ([3]; 37° C., pH 6.8*, 24 h, final conc. 25 μg/mL with 40% DMSO): 94.70%
- Solubility conc.(mg/ml) ([4]; 0.1N HCL): 0.605 mg/mL
- Solubility conc.(mg/ml) ([4]; FaSSIF): 0.007 mg/mL
- Solubility conc.(mg/ml) ([4]; FeSSIF): 0.009 mg/mL
- Solubility conc.(mg/ml) ([4]; SGF): 0.588 mg/mL
- Solubility conc.(mg/ml) ([4]; Water): 0.008 mg/mL
- Solubility conc.(mg/ml) ([4]; pH 4.5 Acetate Buffer (USP)): 0.008 mg/mL
- Solubility conc.(mg/ml) ([4]; pH 6.8 Phosphate Buffer (USP)): 0.011 mg/mL
- Final pH ([4]; 0.1N HCL): 1.68
- Final pH ([4]; FaSSIF): 6.52
- Final pH ([4]; FeSSIF): 5.14
- Final pH ([4]; SGF): 1.67
- Final pH ([4]; Water): 5.42
- Final pH ([4]; pH 4.5 Acetate Buffer (USP)): 4.59
- Final pH ([4]; pH 6.8 Phosphate Buffer (USP)): 6.91
- Hygroscopicity classification by DVS [5]: non-hygroscopic; also recorded: not hygroscopic
- Change In Mass (%) - ref, Desorption ([5]; Target RH 0.0 %): 0.0000%
- Change In Mass (%) - ref, Sorption ([5]; Target RH 0.0 %): 0.0000%
- Change In Mass (%) - ref, Desorption ([5]; Target RH 5.0 %): 0.0094%
- Change In Mass (%) - ref, Hysteresis ([5]; Target RH 5.0 %): 0.0031%
- Change In Mass (%) - ref, Sorption ([5]; Target RH 5.0 %): 0.0063%
- Change In Mass (%) - ref, Desorption ([5]; Target RH 10.0 %): 0.0157%
- Change In Mass (%) - ref, Hysteresis ([5]; Target RH 10.0 %): 0.0052%
- Change In Mass (%) - ref, Sorption ([5]; Target RH 10.0 %): 0.0104%
- Change In Mass (%) - ref, Desorption ([5]; Target RH 15.0 %): 0.0198%
- Change In Mass (%) - ref, Hysteresis ([5]; Target RH 15.0 %): 0.0063%
- Change In Mass (%) - ref, Sorption ([5]; Target RH 15.0 %): 0.0136%
- Change In Mass (%) - ref, Desorption ([5]; Target RH 20.0 %): 0.0251%
- Change In Mass (%) - ref, Hysteresis ([5]; Target RH 20.0 %): 0.0073%
- Change In Mass (%) - ref, Sorption ([5]; Target RH 20.0 %): 0.0178%
- Change In Mass (%) - ref, Desorption ([5]; Target RH 25.0 %): 0.0292%
- Change In Mass (%) - ref, Hysteresis ([5]; Target RH 25.0 %): 0.0084%
- Change In Mass (%) - ref, Sorption ([5]; Target RH 25.0 %): 0.0209%
- Change In Mass (%) - ref, Desorption ([5]; Target RH 30.0 %): 0.0334%
- Change In Mass (%) - ref, Hysteresis ([5]; Target RH 30.0 %): 0.0104%
- Change In Mass (%) - ref, Sorption ([5]; Target RH 30.0 %): 0.0230%
- Change In Mass (%) - ref, Desorption ([5]; Target RH 35.0 %): 0.0386%
- Change In Mass (%) - ref, Hysteresis ([5]; Target RH 35.0 %): 0.0125%
- Change In Mass (%) - ref, Sorption ([5]; Target RH 35.0 %): 0.0261%
- Change In Mass (%) - ref, Desorption ([5]; Target RH 40.0 %): 0.0449%
- Change In Mass (%) - ref, Hysteresis ([5]; Target RH 40.0 %): 0.0094%
- Change In Mass (%) - ref, Sorption ([5]; Target RH 40.0 %): 0.0355%
- Change In Mass (%) - ref, Desorption ([5]; Target RH 45.0 %): 0.0501%
- Change In Mass (%) - ref, Hysteresis ([5]; Target RH 45.0 %): 0.0104%
- Change In Mass (%) - ref, Sorption ([5]; Target RH 45.0 %): 0.0397%
- Change In Mass (%) - ref, Desorption ([5]; Target RH 50.0 %): 0.0543%
- Change In Mass (%) - ref, Hysteresis ([5]; Target RH 50.0 %): 0.0115%
- Change In Mass (%) - ref, Sorption ([5]; Target RH 50.0 %): 0.0428%
- Change In Mass (%) - ref, Desorption ([5]; Target RH 55.0 %): 0.0606%
- Change In Mass (%) - ref, Hysteresis ([5]; Target RH 55.0 %): 0.0146%
- Change In Mass (%) - ref, Sorption ([5]; Target RH 55.0 %): 0.0460%
- Change In Mass (%) - ref, Desorption ([5]; Target RH 60.0 %): 0.0658%
- Change In Mass (%) - ref, Hysteresis ([5]; Target RH 60.0 %): 0.0178%
- Change In Mass (%) - ref, Sorption ([5]; Target RH 60.0 %): 0.0480%
- Change In Mass (%) - ref, Desorption ([5]; Target RH 65.0 %): 0.0689%
- Change In Mass (%) - ref, Hysteresis ([5]; Target RH 65.0 %): 0.0178%
- Change In Mass (%) - ref, Sorption ([5]; Target RH 65.0 %): 0.0512%
- Change In Mass (%) - ref, Desorption ([5]; Target RH 70.0 %): 0.0731%
- Change In Mass (%) - ref, Hysteresis ([5]; Target RH 70.0 %): 0.0157%
- Change In Mass (%) - ref, Sorption ([5]; Target RH 70.0 %): 0.0574%
- Change In Mass (%) - ref, Desorption ([5]; Target RH 75.0 %): 0.0794%
- Change In Mass (%) - ref, Hysteresis ([5]; Target RH 75.0 %): 0.0146%
- Change In Mass (%) - ref, Sorption ([5]; Target RH 75.0 %): 0.0648%
- Change In Mass (%) - ref, Desorption ([5]; Target RH 80.0 %): 0.0857%
- Change In Mass (%) - ref, Hysteresis ([5]; Target RH 80.0 %): 0.0136%
- Change In Mass (%) - ref, Sorption ([5]; Target RH 80.0 %): 0.0721%
- Change In Mass (%) - ref, Desorption ([5]; Target RH 85.0 %): 0.0940%
- Change In Mass (%) - ref, Hysteresis ([5]; Target RH 85.0 %): 0.0136%
- Change In Mass (%) - ref, Sorption ([5]; Target RH 85.0 %): 0.0804%
- Change In Mass (%) - ref, Desorption ([5]; Target RH 90.0 %): 0.1065%
- Change In Mass (%) - ref, Hysteresis ([5]; Target RH 90.0 %): 0.0115%
- Change In Mass (%) - ref, Sorption ([5]; Target RH 90.0 %): 0.0951%
- Change In Mass (%) - ref, Desorption ([5]; Target RH 95.0 %): 0.1159%
- Change In Mass (%) - ref, Sorption ([5]; Target RH 95.0 %): 0.1159%
- moisture picked up (DVS) ([5]; at 95% RH): ~0.2%
